Measured values published in patent US11998481B2, “Methods and compositions for iontophoretic drug delivery to the eye” (University of Florida Research Foundation, Inc., priority 2018, dated 2024).

Legend:
Assay type in all cases: in vitro ADME, rabbit
[1] = Ex vivo iontophoretic delivery of fluorescein to the posterior eye segment, quantified in the vitreous by fluorometer; conditions: for Flux (time averaged): calculated from final concentration in the vitreous; for Concentration in Vitreous: lens loaded with 0.01 mg/mL fluorescein in HEPES; for electrophoretic velocity from the data of Table 3: order of magnitude
Text: (§1) Materials: Mature cadaver rabbit eyes were purchased from Pel-Freez Biologicals (Rogers, AR). The Nile Blue A dye (75% dye content) and Fluorescein were purchased from Sigma-Aldrich (St. Louis, MO). Electrode materials were made 3D printed with conductive PLA filament (Proto Pasta, Vancouver, WA). Cadaver rabbit eyes were fixed in Margo solution containing paraformaldehyde and glutaraldehyde purchased from Fisher Scientific (Hampton, NH). Soaking agents for lenses included phosphate buffered saline (PBS) or a HEPES solution purchased from Fisher Scientific (Hampton, NH). Commercial contact lenses Acuvue Oasys (14 mm diameter, 8.4 mm base curve, 0.0 power) were used in the study.
(§2) Lens Preparation: Contact lenses were loaded by soaking in a 1 mg/mL Nile Blue solution in PBS or in a 0.01 mg/mL fluorescein solution in HEPES overnight. Lenses were loaded overnight in an enclosed space to prevent photobleaching of any species. […] Both species have low molecular weights and therefore have rapid uptakes into the lenses.
(§3) Application of Electric Field: Loaded contact lenses were placed at the periphery of the cornea, on the sclera, and the two electrodes were placed over the lenses. Electrodes were attached to a power source that was set to the desired current (FIG. 8). A syringe pump was configured to gently apply a drop of PBS (≈30 μL) every 30 seconds on to the cornea and would flow to the lenses, providing a thin film to keep them hydrated. The application of PBS also served as an approximate mimic of the in vivo tear film. The submersion of the lens was also crucial to ensure that if any bubbling from electrochemically generated gases were to occur, it would be easily visible. The field was applied for the desired duration and then the power source and lenses were removed. Experiments were conducted with the lenses soaked in PBS for the anode component and HEPES for the cathode. The Nile Blue and fluorescein experiments were each conducted with three different combinations of time and current.
Quantification of Fluorescein Delivery: Delivery of fluorescein to the posterior eye segment was conducted four times for each variation of time and current. After completion, eyes were submerged in PBS for 1 hour and then refrozen. Once the eyes had completely solidified, the vitreous was removed by cutting away the rest of the eye. All samples of same time and current were combined and thawed. After thawing was complete, the vitreous was put through a 0.22 μm filter to ensure no excessive tissue was present in the system. Relative fluorescent intensity of each sample was found using a Quantech fluorometer and the corresponding concentrations of fluorescein was found through a calibration curve.
Efficient transport of fluorescein to the vitreous: The fluorescein was loaded into lenses in a HEPES solution, which alleviated the damage done to the eye during the generation of caustic species from the electrochemical reactions. In order to quantify the delivery of fluorescein to the posterior eye segment, experiments were conducted at three different combinations or time and current and were compared to a control. The electric fields chosen were 0.25 mA (high current) and 0.125 mA (low current) for either 1 hour (short time) or 2 hours (long time). After the application of the electric field to the sclera, the vitreous was harvested and fluorescence was quantified using a fluorometer. The concentrations of fluorescein were found using a calibration curve for the relative fluorescence (Table 3). Additionally in FIGS. 11A-11B, the delivery and localization of fluorescein can be seen in the posterior eye segment. Fluorescence was produced using a UV light source and observed thorough an orange filter. The regions near the cathode component show localizations of fluorescein at the exterior and interior surfaces. The final concentration in the vitreous was also used to calculate the time averaged flux of the fluorescein and the electrophoretic mobility. […]

[2] = Ex vivo iontophoretic delivery of Nile Blue to the posterior eye segment (confocal microscopy)
Text: as §1, §2
as §3, with “current. […]” for “current.”

[3] = Ex vivo iontophoretic delivery of Nile Blue A dye through the cornea from a drug loaded contact lens (camera and confocal imaging)
Text: Materials: Mature cadaver rabbit eyes were purchased from Pel-Freez Biologicals (Rogers, AR). The Nile Blue A dye was purchased from Sigma-Aldrich (St. Louis, MO) with a 75% dye content. Electrode materials were either made from generic lead-free, silver bearing solder or was 3D printed with conductive PLA filament (Proto Pasta, Vancouver, WA). Cadaver rabbit eyes were fixed in Margo solution containing paraformaldehyde and glutaraldehyde purchased from Fisher Scientific (Hampton, NH). Soaking agents for lenses included phosphate buffered saline (PBS), 1 M HEPES, a HEPES buffer solution containing sodium chloride, calcium chloride, magnesium chloride, and potassium phosphate were all purchased from Fisher Scientific (Hampton, NH). Commercial contact lenses Acuvue Oasys (14 mm diameter, 8.4 mm base curve, 0.0 power) were used in the study.
Lens Preparation: Contact lenses were loaded by soaking in a Nile Blue A dye solution (1 mg/mL) in DI water for two days. To investigate the effect of buffer, lenses were soaked in either pure HEPES or HEPES buffer for 10 minutes prior to placement on the cadaver eyes. The molecular weight of HEPES is 238 allowing rapid uptake by the contact lenses. […]
In order to quantify drug delivery, diffusion efficacy was measured by simultaneous comparison of four separate eyes, each corresponding to a different condition. […]

| SMILES | Flux (time averaged) ([1]; 1 hr 0.125 mA) | Concentration in Vitreous ([1]; 1 hr 0.125 mA) [ng/mL] | Flux (time averaged) ([1]; 1 hr 0.250 mA) | Concentration in Vitreous ([1]; 1 hr 0.250 mA) [ng/mL] | Flux (time averaged) ([1]; 2 hr 0.125 mA) | Concentration in Vitreous ([1]; 2 hr 0.125 mA) [ng/mL] | electrophoretic velocity from the data of Table 3 ([1]; high current (0.25 mA) experiments) [μm/s] | electrophoretic velocity from the data of Table 3 ([1]; low current (0.125 mA) experiments) [μm/s] | distribution of Nile Blue A dye across sclera, choroid, and retina ([2]; all applied currents and times) | damage to the posterior eye segment (confocal imaging) ([2]; hybrid lenses: PBS at anode, HEPES at cathode) | transport of Nile Blue A dye across sclera, choroid, and retina (confocal) ([2]; low current and short time duration) | Nile Blue A dye present throughout the cornea (confocal) ([3]; diffusion only, no electric field, from contact lens or standing solution, after 1 hr) | Nile Blue A dye delivered to the cornea (ROI analysis) ([3]; lenses loaded in DI water, all current and time conditions (0.25 or 0.125 mA, 30 or 60 min)) |
| --- | --- | --- | --- | --- | --- | --- | --- | --- | --- | --- | --- | --- | --- |
| O=C1OC2(c3ccc(O)cc3Oc3cc(O)ccc32)c2ccccc21 [Fluorescein] | 7.18 kg/m^2s [×10^7] | 33.8 | 14.93 kg/m^2s [×10^7] | 70.4 | 6.46 kg/m^2s [×10^7] | 60.9 | ~2.6 | ~1.3 |  |  |  |  |  |
| CC[N+](CC)=c1ccc2nc3c(cc(N)c4ccccc43)oc-2c1 [Nile Blue A dye] |  |  |  |  |  |  |  |  | uniform | no apparent damage | sufficient transport | very minor amounts | significant quantities |
